Experiments:
Conditions in all cases: 72 h
[1] = system: Vero E6; test: drug sensitivity score (DSS) for viability; higher = more toxic; extreme values may be limits of the assay
[2] = system: HepG2; test: as above
[3] = system: Calu-3; test: as above
[4] = system: Caco-2; test: as above
[5] = system: U2OS; test: as above
[6] = system: Vero E6; test: cell viability relative to DMSO; higher = less toxic
[7] = system: HepG2; test: as above
[8] = system: Calu-3; test: as above
[9] = system: Caco-2; test: as above
[10] = system: U2OS; test: as above
[11] = system: Vero E6; test: relative viability EC50 (midpoint between 100% and the lowest measured viability); higher = less toxic
[12] = system: HepG2; test: as above
[13] = system: Calu-3; test: as above
[14] = system: Caco-2; test: as above
[15] = system: U2OS; test: as above

| SMILES | drug sensitivity score [1] | drug sensitivity score [2] | drug sensitivity score [3] | drug sensitivity score [4] | drug sensitivity score [5] | cell viability ([6]; 1 nM) [%] | cell viability ([6]; 10 nM) [%] | cell viability ([6]; 100 nM) [%] | cell viability ([6]; 1000 nM) [%] | cell viability ([6]; 10000 nM) [%] | cell viability ([7]; 1 nM) [%] | cell viability ([7]; 10 nM) [%] | cell viability ([7]; 100 nM) [%] | cell viability ([7]; 1000 nM) [%] | cell viability ([7]; 10000 nM) [%] | cell viability ([8]; 1 nM) [%] | cell viability ([8]; 10 nM) [%] | cell viability ([8]; 100 nM) [%] | cell viability ([8]; 1000 nM) [%] | cell viability ([8]; 10000 nM) [%] | cell viability ([9]; 1 nM) [%] | cell viability ([9]; 10 nM) [%] | cell viability ([9]; 100 nM) [%] | cell viability ([9]; 1000 nM) [%] | cell viability ([9]; 10000 nM) [%] | cell viability ([10]; 1 nM) [%] | cell viability ([10]; 10 nM) [%] | cell viability ([10]; 100 nM) [%] | cell viability ([10]; 1000 nM) [%] | cell viability ([10]; 10000 nM) [%] | relative viability EC50 [11] [µM] | relative viability EC50 [12] [µM] | relative viability EC50 [13] [µM] | relative viability EC50 [14] [µM] | relative viability EC50 [15] [µM] |
| --- | --- | --- | --- | --- | --- | --- | --- | --- | --- | --- | --- | --- | --- | --- | --- | --- | --- | --- | --- | --- | --- | --- | --- | --- | --- | --- | --- | --- | --- | --- | --- | --- | --- | --- | --- |
| c1cc(-c2sc(-c3ccncc3)c(-c3ccncc3)c2-c2ccncc2)ccn1 [GANT-58] | 0 | 0 | 0 | 0.2 | 0 | 93 | 106 | 91.7 | 96.4 | 111 | 90.9 | 102 | 97.8 | 118 | 103 | 98.3 | 94.8 | 95.3 | 88.5 | 106 | 105 | 99 | 94.6 | 92.6 | 86.6 | 102 | 99.2 | 99.8 | 97.8 | 99.2 | > 10 | > 10 | > 10 | > 10 | > 10 |
| CC(C)n1nnc2cc(C(=O)O)ccc21 [IBC-293] | 0 | 0 | 0 | 0 | 0 | 96.6 | 98.5 | 102 | 104 | 99.5 | 93.2 | 105 | 91 | 106 | 102 | 94.9 | 91 | 100 | 101 | 103 | 102 | 98 | 101 | 106 | 95.2 | 102 | 96 | 98.3 | 97.6 | 98.6 | > 10 | > 10 | > 10 | > 10 | > 10 |
| COC(=O)C[C@H]1CC(c2ccc(O)cc2)=NO1 [ISO-1] | 0 | 0 | 0 | 0 | 0 | 106 | 99.7 | 97.1 | 101 | 98.5 | 104 | 102 | 102 | 103 | 94.6 | 100 | 109 | 104 | 99.5 | 109 | 102 | 103 | 96.9 | 93.5 | 109 | 95.2 | 98.9 | 96.1 | 106 | 96.8 | > 10 | > 10 | > 10 | > 10 | > 10 |
| NC1=NC(=O)N([C@H]2C[C@H](O)[C@@H](CO)O2)CN1 [KP-1212] | 0 | 0 | 0 | 0 | 0 | 99.8 | 98.7 | 97.9 | 92.1 | 105 | 99.1 | 95 | 100 | 98.3 | 93.9 | 93.3 | 90.5 | 94.3 | 98.9 | 98.8 | 89.9 | 104 | 89 | 103 | 99.8 | 92.6 | 102 | 95.5 | 99.7 | 103 | > 10 | > 10 | > 10 | > 10 | > 10 |
| CC(=O)N[C@@H](Cc1c[nH]c2ccccc12)C(=O)OCc1cc(C(F)(F)F)cc(C(F)(F)F)c1 [L-732,138] | 0 | 0 | 0 | 0 | 0 | 89.1 | 97.3 | 86.3 | 95.3 | 109 | 91.1 | 106 | 105 | 104 | 105 | 95.4 | 102 | 92.6 | 103 | 102 | 91.7 | 92.8 | 96.4 | 97.5 | 92.8 | 96.7 | 94.7 | 97.4 | 94.4 | 99.2 | > 10 | > 10 | > 10 | > 10 | > 10 |
| CN(C)C(=O)CCSC(SCCC(=O)O)c1cccc(/C=C/c2ccc3ccc(Cl)cc3n2)c1 (stereo not given) [MK-571] | 0 | 0 | 0 | 0 | 0 | 98.4 | 93.5 | 99.6 | 99.1 | 91.5 | 102 | 106 | 97.7 | 108 | 95.7 | 101 | 97.5 | 101 | 101 | 104 | 97.8 | 92.2 | 95 | 92.6 | 95.2 | 102 | 101 | 97.2 | 94.3 | 101 | > 10 | > 10 | > 10 | > 10 | > 10 |

Source: the supplement of paper PMC13380429
